Where “and” joins values, the source holds several entries; their conditions need not be identical. Identical values can stand only once. Counter-ions that a name gives are not always drawn. Like-named read-outs stand apart in the source and are kept apart here.
What was measured:
SARS-CoV-2 [1] = type: cell-based
Human T-cells = assay: Proliferation assay of human T-cells (PHA-stimulated PBMCs, BrdU); type: cell-based; conditions: T-cell, PHA 20 μg/ml, 48 hours, BrdU ELISA
Procedure: Human peripheral blood mononuclear cells (PBMCs) were obtained from healthy volunteers and transferred to RPMI1640 cell culture medium containing 10% dialyzed fetal calf serum. 80.000 cells per well were pipetted into a 96-well plate and phytohemagglutinin (PHA) was added in phosphate buffered saline to a final concentration of 20 μg/ml to stimulate T-cell proliferation. Vidofludimus was added in dimethyl sulfoxide (DMSO, final concentration: 0.1 vol %) to final concentrations ranging from 20 nM to 50 μM. After incubation for 48 hours, cell proliferation was quantified using the “cell proliferation ELISA BrdU” (Roche) according to the manufacturer's instructions. Half maximal inhibition (IC50) was calculated using a 4-parameter sigmoidal curve fit.

EGFR = EGFR (Homo sapiens, UniProt P00533); assay: Off-target activity on EGFR; conditions: in contrast to leflunomide and teriflunomide
Auroroa-A kinases = target: T1, Auroroa-A kinases (Homo sapiens, UniProt O14965); assay: Off-target activity on Aurora-A kinase; conditions: in contrast to leflunomide and teriflunomide
T1 sequence (O14965 1-403): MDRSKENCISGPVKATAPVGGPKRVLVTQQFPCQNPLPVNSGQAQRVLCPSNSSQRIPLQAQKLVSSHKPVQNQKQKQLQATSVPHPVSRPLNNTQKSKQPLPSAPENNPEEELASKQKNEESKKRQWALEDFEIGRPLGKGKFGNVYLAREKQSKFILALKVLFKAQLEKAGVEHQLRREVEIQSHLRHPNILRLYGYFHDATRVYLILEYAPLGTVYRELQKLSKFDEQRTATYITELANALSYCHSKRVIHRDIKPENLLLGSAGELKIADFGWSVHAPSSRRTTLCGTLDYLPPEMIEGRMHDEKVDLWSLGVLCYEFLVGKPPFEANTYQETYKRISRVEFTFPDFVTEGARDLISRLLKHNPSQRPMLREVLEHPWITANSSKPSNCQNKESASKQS

bone marrow = assay: Animal studies, effects on bone marrow; type: in vivo; conditions: animals treated with large doses
[2] = human, in vivo
mDHODH = mDHODH (Mus musculus, UniProt O35435); assay: mDHODH inhibition, in vitro protein; type: biochemical
SARS-CoV-2 [3] = assay: SARS-CoV-2 CPE inhibition (neutral red) in Vero 76 cells; type: cell-based; conditions: Severe acute respiratory syndrome coronavirus 2, Vero 76, 120 h, read-out: EC50: 50% effective antiviral concentration
[4] = Cytotoxicity in uninfected Vero 76 cells (neutral red); type: cell-based; conditions: African green monkey, Vero 76, day 5, neutral red, read-out: CC50: 50% cytotoxic concentration of compound without virus added
SARS-CoV-2 USA_WA1/2020 = assay: microbe, parasite or virus in culture; type: cell-based; conditions: Severe acute respiratory syndrome coronavirus 2, Vero 76
SARS-CoV-2 MUC-IMB-1 [5] = assay: microbe, parasite or virus in culture; type: cell-based; conditions: Severe acute respiratory syndrome coronavirus 2, Vero 76
SARS-CoV-2 MUC-IMB-1 [6] = assay: microbe, parasite or virus in culture; type: cell-based; conditions: Severe acute respiratory syndrome coronavirus 2, Vero
SARS-CoV-2 MUC-IMB-1 [7] = assay: microbe, parasite or virus in culture; type: cell-based; conditions: Severe acute respiratory syndrome coronavirus 2, Caco-2
SARS-CoV-2 [8] = type: cell-based; conditions: CaCo-2 supernatants on Vero E6 monolayers, treatment setting
[9] = test system: hyperactivated immune cells; assay: T-cell mediated cytokine production of hyperactivated immune cells; type: cell-based
[10] = Clinical tolerability of repeated daily dosing; type: in vivo, human; conditions: clinical trials
[11] = test system: SARS-CoV-2 infection (COVID-19)
[12] = human, in vivo; remark: listed apart in the source
[13] = test system: HIV-191US005 (CCR5-tropic, Subtype B); conditions: cited from earlier work
[14] = test system: HCV sub genomic replicon of genotype 1b; conditions: cited from earlier work
Lassa fever Arena virus = conditions: Plaque reduction, virus protein expression; A549 and Vero models; cited from earlier work
in vitro [15] = conditions: African green monkey
in vitro [16] = conditions: African green monkey; remark: listed apart in the source
in vitro [17] = conditions: human
[18] = Cytotoxicity on fibroblasts
[19] = Cytotoxicity on HepG2 cells; conditions: human
[20] = Cytotoxicity in Vero 76 cells (Table 4); conditions: African green monkey
Vero 76 = assay: Cytotoxicity in Vero 76 cells (Table 4); conditions: Vero 76, 3 days post infection
[21] = test system: SARS-CoV-2 infection (COVID-19); assay: Phase 2 placebo-controlled trial in hospitalized patients with moderate COVID-19; conditions: human, in vivo
[22] = in vivo; cited from earlier work

Sequence of EGFR (P00533 25-1210, species assumed): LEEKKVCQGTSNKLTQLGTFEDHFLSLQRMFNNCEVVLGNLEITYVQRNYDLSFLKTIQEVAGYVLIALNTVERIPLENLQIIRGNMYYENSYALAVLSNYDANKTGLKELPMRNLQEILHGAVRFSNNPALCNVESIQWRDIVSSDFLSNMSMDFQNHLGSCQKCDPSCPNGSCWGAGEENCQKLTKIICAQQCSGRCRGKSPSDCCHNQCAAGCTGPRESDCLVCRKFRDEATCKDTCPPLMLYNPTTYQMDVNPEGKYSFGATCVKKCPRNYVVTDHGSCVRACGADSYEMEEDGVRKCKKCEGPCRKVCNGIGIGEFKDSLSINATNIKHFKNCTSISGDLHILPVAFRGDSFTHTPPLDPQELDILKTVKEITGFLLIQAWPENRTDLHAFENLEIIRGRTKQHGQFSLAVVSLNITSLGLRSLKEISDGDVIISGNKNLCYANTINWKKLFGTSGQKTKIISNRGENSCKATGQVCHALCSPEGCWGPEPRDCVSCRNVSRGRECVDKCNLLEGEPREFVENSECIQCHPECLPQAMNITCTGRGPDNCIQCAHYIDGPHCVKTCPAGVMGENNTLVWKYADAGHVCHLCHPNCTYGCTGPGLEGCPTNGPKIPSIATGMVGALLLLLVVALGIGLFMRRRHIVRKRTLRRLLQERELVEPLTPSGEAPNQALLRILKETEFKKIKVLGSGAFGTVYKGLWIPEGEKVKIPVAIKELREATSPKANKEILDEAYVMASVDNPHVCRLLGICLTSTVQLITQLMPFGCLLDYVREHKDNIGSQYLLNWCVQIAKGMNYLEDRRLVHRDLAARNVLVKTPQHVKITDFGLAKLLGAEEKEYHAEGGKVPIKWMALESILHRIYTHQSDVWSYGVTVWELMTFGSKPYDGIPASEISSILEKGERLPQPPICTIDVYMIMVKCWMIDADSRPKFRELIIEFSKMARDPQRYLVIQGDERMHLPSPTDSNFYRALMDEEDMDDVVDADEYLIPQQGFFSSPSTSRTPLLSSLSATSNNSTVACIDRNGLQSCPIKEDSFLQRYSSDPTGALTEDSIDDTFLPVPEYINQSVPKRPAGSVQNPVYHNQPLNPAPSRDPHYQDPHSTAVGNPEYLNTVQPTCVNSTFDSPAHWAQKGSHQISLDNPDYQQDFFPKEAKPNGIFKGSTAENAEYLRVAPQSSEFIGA
Sequence of mDHODH (O35435 whole entry): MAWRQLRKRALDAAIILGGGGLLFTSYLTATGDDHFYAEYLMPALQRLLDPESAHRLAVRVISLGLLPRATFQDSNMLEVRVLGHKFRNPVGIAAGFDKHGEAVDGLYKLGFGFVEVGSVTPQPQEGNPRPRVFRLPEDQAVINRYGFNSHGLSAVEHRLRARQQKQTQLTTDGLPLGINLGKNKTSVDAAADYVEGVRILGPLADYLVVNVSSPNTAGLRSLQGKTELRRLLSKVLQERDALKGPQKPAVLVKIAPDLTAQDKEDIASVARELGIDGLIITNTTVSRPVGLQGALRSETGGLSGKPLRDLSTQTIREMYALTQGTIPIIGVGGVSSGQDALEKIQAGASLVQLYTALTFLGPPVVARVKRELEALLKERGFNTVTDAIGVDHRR

Q: For `CCC(CC)COC(=O)[C@H](C)N[P@](=O)(OC[C@H]1O[C@@](C#N)(c2ccc3c(N)ncnn23)[C@H](O)[C@@H]1O)Oc1ccccc1` [Remdesivir, remdesivir, reference compound], which Virus titer (SARS-CoV-2 [1]; remdesivir 1 μM alone) is on record?
A: Its Virus titer is 5.0 CCID50/ml.

Q: What about the Virus titer (SARS-CoV-2 [1]; remdesivir 5 μM alone) of the same compound?
A: Its Virus titer is 1.7 CCID50/ml.

Q: What about the Virus titer (SARS-CoV-2 [1]; remdesivir 10 μM alone) of the same compound?
A: Its Virus titer is under 0.67 CCID50/ml.

Q: With `COc1cccc(-c2ccc(NC(=O)C3=C(C(=O)O)CCC3)c(F)c2)c1` [Vidofludimus, 2-((3-fluoro-3′-methoxy-[1,1′-biphenyl]-4-yl)carbamoyl)cyclopent-1-enecarboxylic acid] as the compound, how does the IC50 (Human T-cells) read?
A: The IC50 was 4.1 µM.

Q: And the “off-target activity on EGFR” value (EGFR)?
A: The value was “does not hit”.

Q: What about the “off-target activity on Aurora-A kinases” value (Auroroa-A kinases) of the same compound?
A: The value was “does not hit”.

Q: What about the “effects on bone marrow” value (bone marrow) of the same compound?
A: Its value is “lack detrimental effects on bone marrow”.

Q: And the blood plasma half-life [2]?
A: The blood plasma half-life was 30 h.

Q: For `COc1cccc(-c2ccc(NC(=O)C3=C(C(=O)O)CCC3)c(F)c2)c1` [IMU-838, 1-cyclopentene-1-carboxylic acid, 2-(((3-fluoro-3′-methoxy(1,1′-biphenyl)-4-yl)amino)carbonyl)-, calcium salt (2:1)], which IC50 (mDHODH) is on record?
A: The IC50 was 10 µM.

Q: And the EC50 (SARS-CoV-2 [3])?
A: Its EC50 is 6.1 µM.

Q: What about the CC50 at 5 days [4] of the same compound?
A: Its CC50 at 5 days is 7.9 µM.

Q: What about the EC90 (SARS-CoV-2 USA_WA1/2020) of the same compound?
A: The EC90 was 6.2 ± 1.9 µM.

Q: What about the EC50 (SARS-CoV-2 MUC-IMB-1 [5]) of the same compound?
A: Its EC50 is 10 µM.

Q: What about the EC50 (SARS-CoV-2 MUC-IMB-1 [6]) of the same compound?
A: The EC50 was 6.8 µM.

Q: What about the EC50 (SARS-CoV-2 MUC-IMB-1 [7]) of the same compound?
A: Its EC50 is 7.5 to 15 µM.

Q: And the EC90 (SARS-CoV-2 MUC-IMB-1 [7])?
A: The EC90 was 15 to 30 µM.

Q: And the “reduction of viral plaques” value (SARS-CoV-2 [8])?
A: The value was 58 fold.

Q: What about the Virus titer (SARS-CoV-2 [1]; IMU-838 1 μM alone) of the same compound?
A: The Virus titer was 5.7 CCID50/ml.

Q: What about the Virus titer (SARS-CoV-2 [1]; IMU-838 5 μM alone) of the same compound?
A: The Virus titer was 5.7 CCID50/ml.

Q: What about the Virus titer (SARS-CoV-2 [1]; IMU-838 10 μM alone) of the same compound?
A: Its Virus titer is 4.5 CCID50/ml.

Q: What about the “reduction of virus titer” value (SARS-CoV-2 [1]; all other concentrations (5, 1 μM), alone) of the same compound?
A: Its value is “did not reduce virus titer”.

Q: What about the “T-cell mediated cytokine production” value [9] of the same compound?
A: Its value is “able to block”.

Q: And the “tolerated repeated daily dosing” value [10]?
A: The value was “up to 50 mg”.

Q: What about the “COVID-19 related adverse events with increased intensity” value ([11]; IMU-838 treated patients) of the same compound?
A: The value was 7.1%.

Q: And the “reduction of C-reactive protein (CRP) vs placebo” value ([11]; blood)?
A: Its value is “more effective reduction”.

Q: And the “proportion of patients reaching clinical recovery” value ([11]; day 7, FAS, 2×22.5 mg + standard-of-care)?
A: The value was 18.5%.

Q: And the “proportion of patients reaching clinical improvement (as assessed by the investigators)” value ([11]; day 14, FAS)?
A: The value was 42.7%.

Q: And the “anti-viral effect by viral titers” value ([11]; day 14 and day 28)?
A: The value was “anti-viral effect of IMU-838 on SARS-CoV-2 was observed”.

Q: What about the “proportion of patients reaching clinical improvement (as assessed by the investigators)” value ([11]; day 28, FAS) of the same compound?
A: Its value is 90.9%.

Q: What about the “proportion of patients reaching clinical recovery” value ([11]; day 28, FAS) of the same compound?
A: The value was 71.3%.

Q: What about the “patients reaching WHO score improvement by two points” value ([11]; elderly patients (65 years or older), day 14, mFAS) of the same compound?
A: Its value is 36.4%.

Q: And the “acceleration of 75% probability to reach clinical improvement (centrally calculated) vs placebo” value ([11]; human, in vivo)?
A: The value was 2.9 days.

Q: And the “acceleration of 75% probability to reach clinical improvement (investigator assessment) vs placebo” value ([11]; human, in vivo)?
A: The value was 3.8 days and 4.8 days.

Q: What about the “reduction of D-dimer vs placebo” value ([11]; human, in vivo) of the same compound?
A: Its value is “more effective reduction”.

Q: And the “shortening of third patient quartile for duration of hospitalization vs placebo” value ([11]; human, in vivo)?
A: Its value is 3.4 days.

Q: And the “time to clinical improvement vs placebo” value ([11]; mFAS)?
A: Its value is “shorter”.

Q: And the “clinical improvement (centrally calculated) when used early” value ([11]; within the first 8 days after onset of symptoms, mFAS)?
A: Its value is “observed to be better”.

Q: And the “plasma levels achieved in the blood of treated patients” value [12]?
A: Its value is 10 to 30 µM.

Q: And the IC50 ([13]; RT (reverse transcriptase))?
A: The IC50 was 2.2 µM.

Q: And the EC50 ([13]; human PBMCs, reverse transcriptase activity and p24, read-out: median effective dose (ED50) HIV)?
A: The EC50 was about 2 µM.

Q: What about the IC50 ([13]; p24) of the same compound?
A: The IC50 was 2 µM.

Q: What about the EC50 ([14]; Huh7 cells, Luc activity readout, read-out: median ED50 HCV replicon) of the same compound?
A: Its EC50 is 4.6 µM.

Q: What about the IC50 ([14]; Replicon, luciferase) of the same compound?
A: The IC50 was 4.6 µM.

Q: What about the IC50 (Lassa fever Arena virus) of the same compound?
A: Its IC50 is 2.8 µM.

Q: What about the CC50 (in vitro [15]) of the same compound?
A: Its CC50 is 88 µM.

Q: And the CC50 (in vitro [16])?
A: The CC50 was over 100 µM.

Q: And the CC50 (in vitro [17])?
A: The CC50 was over 60 µM.

Q: What about the CC90 (in vitro [17]) of the same compound?
A: The CC90 was over 60 µM.

Q: What about the IC50 [18] of the same compound?
A: Its IC50 is over 30 µM.

Q: And the IC50 [19]?
A: The IC50 was over 50 µM.

Q: What about the CC90 at 3 days [20] of the same compound?
A: Its CC90 at 3 days is over 100 µM.

Q: And the “drug concentrations with no cytotoxicity observed” value (Vero 76)?
A: Its value is “up to 100 μM”.

Q: What about the “hematological effects of COVID19” value [21] of the same compound?
A: Its value is “did not intensify”.

Q: What about the “rate of infections and infestations and rate of liver events vs placebo” value [21] of the same compound?
A: Its value is “did not increase”.

Q: What about the “rate of serious adverse events and adverse events leading to treatment discontinuation vs placebo” value [21] of the same compound?
A: The value was “not increased”.

Q: Which results are given for `Cc1oncc1C(=O)Nc1ccc(C(F)(F)F)cc1` [leflunomide]?
A: blood plasma half-life [22]: 384 to 456 h; dosing time to achieve therapeutic trough levels [22]: up to 2 months
